The values that follow come from US20240059658A1 (Emory University, priority 2019, published 2024).

The target of one experiment is T1, MDM2 (Homo sapiens, UniProt Q00987).
T1 construct: ubiquitination of endogenous MDM2 in EU-1 cells; endogenous in cells; host or cells: EU-1 (ALL) cells
Briefly: MDM2 reduction / expression (Western blot). It counts as cell-based. Conditions: words or +/− grades, key not given. The protocol: (§1) Cells were lysed in a buffer composed of 50 mM Tris, pH 7.6, 150 mM NaCl, 1% Nonidet P-40, 10 mM sodium phosphate, 10 mM NaF, 1 mM sodium orthovanadate, 2 mM phenylmethylsulfonyl fluoride (PMSF), […], 10 μg/mL leupeptin and 10 μg/mL pepstatin. After centrifugation, the clarified cell lysate was separated from the pellet of cell debris, and then incubated with 15 μL Protein G/Protein A-agarose and 1 μg of antibodies, overnight at 4° C. For the Western blot, the resulting cell lysates or immunoprecipitates were resolved by SDS-PAGE. They were then transferred to a nitrocellulose filter and probed with the specific antibodies as listed in the supplemental Materials section. Finally, proteins were visualized with a chemiluminescent detection system.
For orientation: Immunoblotting shows a protein as a band on a membrane.

The subject of the next experiment is p53. Nature of the experiment: p53 induction / expression (Western blot). It counts as cell-based. The note with it: words or +/− grades, key not given. The method, then:
as §1

A further experiment deals with XIAP. Briefly: XIAP inhibition / expression (Western blot). It counts as cell-based. The note with it: MDM2 reduction. The method, then:
as §1

A further experiment relates to EU-1. Briefly: WST cytotoxicity assay, cancer cell EU-1. The class given is cell-based, human. The note with it: Homo sapiens, EU-1, EU-1; no other cell line named in the cell; read-out: Cancer cell (EU-1) cytotoxicity IC50. In short, it runs like this: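 Pediatric ALL and NB lines grown in RPMI 1640 with 10% FBS at 37 °C, 5% CO2. Cells were exposed to a range of compound concentrations for 20 h, then WST (25 μg/well) was added for a further 4 h. OD read at 450 nm against a 620 nm reference.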

A further experiment has as its system NB-1643. Nature of the experiment: WST cytotoxicity assay, NB-1643. The class given is cell-based. The note with it: Homo sapiens; NB-1643 line; read-out: Cancer cell cytotoxicity IC50. The protocol:
This study used two ALL cell lines (EU-1 and EU-3) and three NB cell lines (NB-1643, SHEP1 and LA1-55N). All 5 cancer cell lines were established from pediatric ALL or NB patients and were well-characterized for their expression of MDM2 and p53-status, as reported previously. All cell lines were grown in standard culture medium (RPMI 1640 containing 10% FBS, 2 mmol/L L-glutamine, 50 U penicillin and 50 μg/mL streptomycin) at 37° C. in a humidified atmosphere containing 5% CO2.
(§2) The cytotoxic effect of MX 69 and MX69 analogs on cancer cells was determined using the water-soluble tetrazolium salt (WST) assay. Briefly, cells cultured in 96-well microtiter plates were treated with different concentrations of AQ-101 for a 20-h period. WST (25 μg/well) was then added and incubation continued for an additional 4 h, after which optical density (OD) was read with a microplate reader (test wavelength of 450 nm; reference wavelength of 620 nm).

The subject of a further experiment is 855 line. Nature of the experiment: WST cytotoxicity assay, 855 line. The class given is cell-based. Conditions: read-out: Cancer cell cytotoxicity IC50. The protocol: as §2

T1 sequence (Q00987 whole entry): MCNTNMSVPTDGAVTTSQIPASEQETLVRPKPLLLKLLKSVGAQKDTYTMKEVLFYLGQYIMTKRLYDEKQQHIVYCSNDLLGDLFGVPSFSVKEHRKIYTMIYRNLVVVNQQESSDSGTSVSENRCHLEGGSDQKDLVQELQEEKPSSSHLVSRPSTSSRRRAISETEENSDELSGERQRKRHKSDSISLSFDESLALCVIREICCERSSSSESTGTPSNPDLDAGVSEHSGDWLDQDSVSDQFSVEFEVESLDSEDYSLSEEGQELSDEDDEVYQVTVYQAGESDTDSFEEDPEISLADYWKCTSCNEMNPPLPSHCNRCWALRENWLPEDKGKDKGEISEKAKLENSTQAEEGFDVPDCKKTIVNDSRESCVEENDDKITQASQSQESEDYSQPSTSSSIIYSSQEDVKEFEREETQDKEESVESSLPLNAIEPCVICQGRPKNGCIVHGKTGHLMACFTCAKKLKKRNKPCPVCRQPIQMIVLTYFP

A word on the IC50: it is the point on the concentration scale where inhibition reaches its midpoint. `Cc1ccc(NS(=O)(=O)c2ccc3c(c2)C(=O)C[C@@H](c2ccc(C(=O)C(C)C)cc2)N3)cc1C` (stereo in doubt) [Compound 69L84, N-(3,4-dimethylphenyl)-2-(4-isobutyrylphenyl)-4-oxo-1,2,3,4-tetrahydroquinoline-6-sulfonamide]: at MDM2, the MDM2 reduction entry is “inhibition”. The p53 induction result in the experiment on p53 is given as “activation”. The XIAP inhibition entry in the experiment on XIAP is “inhibition”. For the same molecule, the IC50 with EU-1 was in the range of 200 to 600 nM.
Consider `Cc1ccc(NS(=O)(=O)c2ccc3c(c2)C2OCC[C@H]2C(c2ccc(C(O)C(C)C)cc2)N3)cc1C` (stereo in doubt) [Compound 69L87, N-(3,4-dimethylphenyl)-4(4-(1-hydroxy-2-methylpropyl)phenyl)-2,3,3a,4,5,9b-hexahydrofuro[3,2-c]quinoline-8-sulfonamide], for which the MDM2 reduction entry on MDM2 is on record as “inhibition”. The p53 induction entry in the experiment with p53 is recorded as “inhibition”. The IC50 in the experiment with EU-1 is 1980 nM.
With `CC(=O)c1cccc(C2Nc3ccc(S(=O)(=O)Nc4ccc(C)c(C)c4)cc3C3OCC[C@@H]23)c1` (stereo in doubt) [Compound 69L93, 4-(3-acetylphenyl)-N-(3,4-dimethylphenyl)-2,3,3a,4,5,9b-hexahydrofuro[3,2-c]quinoline-8-sulfonamide], on MDM2, the MDM2 reduction result is “inhibition”. The p53 induction result in the experiment with p53 is “induction”. In addition, the IC50 in the experiment with EU-1 came to 1950 nM.
Regarding `CC(=O)c1cccc(NS(=O)(=O)c2ccc3c(c2)[C@H]2OCC[C@H]2C(c2ccc(C(=O)C(C)C)cc2)N3)c1` (stereo in doubt) [Compound 69L102, N-(3-acetylphenyl)-4-(4-isobutyrylphenyl)-2,3,3a,4,5,9b-hexahydrofuro[3,2-c]quinoline-8-sulfonamide], the MDM2 reduction entry at MDM2 was “inhibition”. Further, in the experiment on XIAP, the XIAP inhibition result is “inhibition”. Moreover, the IC50 with EU-1 came out at 230 nM.
`CC(=O)c1ccc(C2Nc3ccc(S(=O)(=O)Nc4ccc(C)c(C)c4)cc3[C@H]3OCC[C@@H]23)cc1` (stereo partly drawn) [Compound 69L38]: the IC50 in the experiment with NB-1643 came to 1820 nM; in the experiment with 855 line it was 490 nM. In addition, the MDM2 reduction entry on MDM2 is given as “No MDM2”.
In the case of `COC(=O)c1ccc([C@H]2CC(O)c3cc(S(=O)(=O)Nc4ccc(C)c(C)c4)ccc3N2)cc1` (stereo partly drawn) [Compound 69L39], the values for the IC50 in the experiment with NB-1643 and in the experiment on 855 line were 1610 nM and 680 nM, respectively. Also, at MDM2, the MDM2 reduction entry is “No MDM2”.
Take `Cc1ccc(NS(=O)(=O)c2ccc3c(c2)C2OCC[C@H]2[C@H](C2CCOCC2)N3)cc1C` (stereo partly drawn) [Compound 69L58, N-(3,4-dimethylphenyl)-4-(tetrahydro-2H-pyran-4-yl)-2,3,3a,4,5,9b-hexahydrofuran[3,2-c]quinolone-8-sulfonamine]: the IC50 came to 2630 nM in the experiment on NB-1643 and 1610 nM in the experiment on 855 line. Further, at MDM2, the MDM2 reduction entry is “inhibition”. The p53 induction entry with p53 was “induction”.
In the case of `O=S(=O)(Nc1ccc2c(c1)CCCC2)c1ccc2c(c1)C1OCC[C@H]1[C@H](C1CCCCC1)N2` (stereo partly drawn) [Compound 69L59, 4-cyclohexyl-N-(5,6,7,8-tetrahydronaphthalen-2-yl)-2,3,3a,4,5,9b-hexahydrofuran[3,2-c]quinolone-8-sulfonamine], the results for the IC50 in the experiment with NB-1643 and in the experiment on 855 line were 3090 nM and 2310 nM, respectively. On MDM2, the MDM2 reduction entry is recorded as “No MDM2”.
Consider `CC(=O)c1ccc(C2CC(=O)c3cc(S(=O)(=O)Nc4ccc(C)c(C)c4)ccc3N2)cc1` (stereo not drawn) [Compound 69L83, 2-(4-acetylphenyl)-N-(3,4-dimethylphenyl)-4-oxo-1,2,3,4-tetrahydroquinoline-6-sulfonamide], for which the MDM2 reduction result on MDM2 was “inhibition”. Besides, the p53 induction result with p53 is recorded as “inhibition”. Moreover, in the experiment with EU-1, the IC50 came to 1170 nM.
On to `Cc1ccc(NS(=O)(=O)c2ccc3c(c2)C2OCC[C@H]2C(c2ccc(C(=O)C(C)C)cc2)N3)cc1C` (stereo partly drawn) [Compound 69L96], for which the MDM2 reduction entry at MDM2 is reported as “inhibition”. Further, in the experiment with EU-1, the IC50 was determined as 2080 nM.
On to `CC(=O)c1ccc(NS(=O)(=O)c2ccc3c(c2)[C@H]2OCC[C@H]2C(c2ccc(C(=O)C(C)C)cc2)N3)cc1` (stereo partly drawn) [Compound 69L98, N-(4-acetylphenyl)-4-(4-isobutyrylphenyl)-2,3,3a,4,5,9b-hexahydrofuro[3,2-c]quinoline-8-sulfonamide], for which the MDM2 reduction result on MDM2 was “inhibition”. Further, the p53 induction result with p53 is “induction”. The IC50 in the experiment on EU-1 was 1500 nM.
As to `Cc1cccc(NS(=O)(=O)c2ccc3c(c2)C(=O)CC(c2ccc(C(=O)C(C)C)cc2)N3)c1` (stereo not drawn) [Compound 69L99, 2-(4-isobutyrylphenyl)-4-oxo-N-(m-tolyl)-1,2,3,4-tetrahydroquinoline-6-sulfonamide], the MDM2 reduction result on MDM2 is given as “inhibition”. In addition, in the experiment on EU-1, the IC50 was 230 nM.
The like results for `CC(C)C(=O)c1ccc(C2CC(=O)c3cc(S(=O)(=O)Nc4ccc(Cl)c(Cl)c4)ccc3N2)cc1` (stereo not drawn) [Compound 69L100, N-(3,4-dichlorophenyl)-2-(4-isobutyrylphenyl)-4-oxo-1,2,3,4-tetrahydroquinoline-6-sulfonamide] were, in that order, “No MDM2” and 1870 nM.
Take `O=S(=O)(Nc1ccc(Cl)c(Cl)c1)c1ccc2nc(C3CCCCC3)ccc2c1` [Compound 69L105]: at MDM2, the MDM2 reduction entry is recorded as “No MDM2”. The IC50 with EU-1 was determined as 3120 nM.
The like results for `Cc1ccc(NS(=O)(=O)c2ccc3c(c2)C(=O)CC(c2ccc(C(=O)C(C)C)cc2)N3)cc1Cl` (stereo not drawn) [Compound 69L107, N-(3-chloro-4-methylphenyl)-2-(4-isobutyrylphenyl)-4-oxo-1,2,3,4-tetrahydroquinoline-6-sulfonamide] were, in that order, “inhibition” and 930 nM.
Consider `Cc1cc(NS(=O)(=O)c2ccc3c(c2)C(=O)CC(c2ccc(C(=O)C(C)C)cc2)N3)ccc1F` (stereo not drawn) [Compound 69L108, N-(4-fluoro-3-methylphenyl)-2-(4-isobutyrylphenyl)-4-oxo-1,2,3,4-tetrahydroquinoline-6-sulfonamide], for which, at MDM2, the MDM2 reduction result was “inhibition”. In addition, in the experiment on EU-1, the IC50 was found to be 420 nM.
In the case of `CC(=O)c1cccc(C2CC(=O)c3cc(S(=O)(=O)Nc4ccc(F)c(C)c4)ccc3N2)c1` (stereo not drawn) [Compound 69L109, 2-(3-acetylphenyl)-N-(4-fluoro-3-methylphenyl)-4-oxo-1,2,3,4-tetrahydroquinoline-6-sulfonamide], the MDM2 reduction entry at MDM2 is “No MDM2”. In the experiment with EU-1, the IC50 amounted to 100 nM.
As for `CC(=O)c1cccc(NS(=O)(=O)c2ccc3c(c2)C(=O)CC(c2ccc(C(=O)C(C)C)cc2)N3)c1` (stereo not drawn) [Compound 69L113, N-(3-acetylphenyl)-2-(4-isobutyrylphenyl)-4-oxo-1,2,3,4-tetrahydro-quinoline-6-sulfonamide], at MDM2, the MDM2 reduction result is “inhibition”. The XIAP inhibition entry with XIAP was “inhibition”. Also, the IC50 in the experiment with EU-1 was less than 100 nM.
Turning to `Cc1ccc(NS(=O)(=O)c2ccc3c(c2)C(=O)CC(c2cccc(C(=O)C(C)C)c2)N3)cc1C` (stereo not drawn) [Compound 69L114, N-(3,4-dimethylphenyl)-2-(3-isobutyrylphenyl)-4-oxo-1,2,3,4-tetrahydroquinoline-6-sulfonamide], the MDM2 reduction result on MDM2 was “inhibition”. The XIAP inhibition result in the experiment with XIAP was “inhibition”. Further, in the experiment on EU-1, the IC50 is less than 100 nM.
In the case of `CC(C)c1ccc(C2Nc3ccc(S(=O)(=O)Nc4cccc(C(C)O)c4)cc3[C@H]3OCC[C@@H]23)cc1` (stereo partly drawn) [Compound 69L116], the MDM2 reduction entry at MDM2 is on record as “No MDM2”. The IC50 in the experiment with EU-1 came to 120 nM.
The like results for `CC(C)C(=O)c1ccc(C2Nc3ccc(S(=O)(=O)Nc4ccc5c(c4)CCO5)cc3[C@H]3OCC[C@@H]23)cc1` (stereo partly drawn) [Compound 69L117] were, in that order, “No MDM2” and 300 nM.
The like results for `CC(=O)c1cccc(NS(=O)(=O)c2ccc3c(c2)C(=O)CC(c2cccc(C(C)=O)c2)N3)c1` (stereo not drawn) [Compound 69L121, N,2-bis(3-acetylphenyl)-4-oxo-1,2,3,4-tetrahydroquinoline-6-sulfonamide] were, in that order, “inhibition” and 180 nM.
As for `CC(=O)c1cccc(C2CC(=O)c3cc(S(=O)(=O)Nc4ccc5c(c4)CCO5)ccc3N2)c1` (stereo not drawn) [Compound 69L123, 2-(3-acetylphenyl)-N-(2,3-dihydrobenzofuran-5-yl)-4-oxo-1,2,3,4-tetrahydroquinoline-6-sulfonamide], on MDM2, the MDM2 reduction entry is “inhibition”. Moreover, in the experiment with EU-1, the IC50 was less than 100 nM.
